Our source for the IC50 and LD50 values is US4085114A, “1,2-Benzoisoxazole derivatives and the production thereof” (Shionogi & Co., Ltd., priority 1975, dated 1978).

Molecules are shown by their SMILES. Values after ≈ are worked out from the molar mass of the structure shown.

One data set relates to isolated atria. In words: β-Blocking activities in the isolated atria (inhibition of positive inotropic effect of isoproterenol). It is filed as cell-based, Guinea-pigs. To be noted: Cavia porcellus, read-out: fifty percent inhibitory concentration on the positive inotropic effect of isoproterenol (IC50), 1. Atria. The procedure: (§1) Guinea-pigs of either sex, weighing between 400 - 700 g each, were killed by a sharp blow on the head. Their atria and trachea were quickly excised and freed of excess tissues.
1. β-Blocking activities in the isolated atria:
The isolated atria were mounted in a 30 ml organ bath filled with Krebs-Ringer-bicarbonate solution, which was constantly bubbled with a gas mixture of 95% oxygen and 5% carbon dioxide at 30° C. Spontaneous contractions of the atria were isometrically recorded on the polygraph (RM-150, Nihon Kohden Kogyo) by mean of a F-D pick-up (N. K. K.) and the number of contractions in one minute was recorded on the home-made pulse counter triggered by the atrial contractions.

The next data set can be described thus: in vivo. To be noted: mouse, iv, female DS mice.
The next data set deals with isolated trachea. The experiment in a line: β-Blocking activities in the isolated trachea (inhibition of isoproterenol-induced relaxation of tracheal chain). To be noted: Cavia porcellus, read-out: fifty percent inhibitory concentration on the relaxation of tracheal chain by isoproterenol (IC50), 2. Trachea. The data set is classed as cell-based, Guinea-pigs.
Description: as §1

As a reminder, the LD50 is the dose expected to kill half of the subjects tested. Lower therefore signals greater toxicity. With `Cc1noc2cccc(OCC(O)CNC(C)C)c12` (centres unmarked) [3-methyl-4-(2-hydroxy-3-isopropylaminopropoxy)-1,2-benzisoxazole], in the data set with isolated atria, the IC50 is 25 ng/mL (≈ 0.0946 µM). This compound also returned an LD50 in the data set “in vivo” of 45 mg/kg.
With `Cc1noc2cccc(OCC(O)CNC(C)(C)C)c12` (centres unmarked) [3-methyl-4-(2-hydroxy-3-tert-butylaminopropoxy)-1,2-benzisoxazole], the IC50 in the data set with isolated atria came to 7.9 ng/mL (≈ 0.0284 µM); in the data set on isolated trachea it was 1.1 ng/mL (≈ 0.00395 µM). In the data set “in vivo”, the LD50 amounted to 41.8 mg/kg.
